# Legend:
# Type in all cases: cell-based
# [1] = biological target: T1, human TLR7 (Homo sapiens, UniProt Q9NYK1); experiment: TLR7 inhibition reporter assay (HEK-Blue SEAP); conditions: HEK-Blue cells overexpressing human TLR7, stimulated with gardiquimod 7.5 μM, 22 hour incubation
# T1 construct: host or cells: HEK-Blue cells
# T1 sequence (Q9NYK1 27-1049): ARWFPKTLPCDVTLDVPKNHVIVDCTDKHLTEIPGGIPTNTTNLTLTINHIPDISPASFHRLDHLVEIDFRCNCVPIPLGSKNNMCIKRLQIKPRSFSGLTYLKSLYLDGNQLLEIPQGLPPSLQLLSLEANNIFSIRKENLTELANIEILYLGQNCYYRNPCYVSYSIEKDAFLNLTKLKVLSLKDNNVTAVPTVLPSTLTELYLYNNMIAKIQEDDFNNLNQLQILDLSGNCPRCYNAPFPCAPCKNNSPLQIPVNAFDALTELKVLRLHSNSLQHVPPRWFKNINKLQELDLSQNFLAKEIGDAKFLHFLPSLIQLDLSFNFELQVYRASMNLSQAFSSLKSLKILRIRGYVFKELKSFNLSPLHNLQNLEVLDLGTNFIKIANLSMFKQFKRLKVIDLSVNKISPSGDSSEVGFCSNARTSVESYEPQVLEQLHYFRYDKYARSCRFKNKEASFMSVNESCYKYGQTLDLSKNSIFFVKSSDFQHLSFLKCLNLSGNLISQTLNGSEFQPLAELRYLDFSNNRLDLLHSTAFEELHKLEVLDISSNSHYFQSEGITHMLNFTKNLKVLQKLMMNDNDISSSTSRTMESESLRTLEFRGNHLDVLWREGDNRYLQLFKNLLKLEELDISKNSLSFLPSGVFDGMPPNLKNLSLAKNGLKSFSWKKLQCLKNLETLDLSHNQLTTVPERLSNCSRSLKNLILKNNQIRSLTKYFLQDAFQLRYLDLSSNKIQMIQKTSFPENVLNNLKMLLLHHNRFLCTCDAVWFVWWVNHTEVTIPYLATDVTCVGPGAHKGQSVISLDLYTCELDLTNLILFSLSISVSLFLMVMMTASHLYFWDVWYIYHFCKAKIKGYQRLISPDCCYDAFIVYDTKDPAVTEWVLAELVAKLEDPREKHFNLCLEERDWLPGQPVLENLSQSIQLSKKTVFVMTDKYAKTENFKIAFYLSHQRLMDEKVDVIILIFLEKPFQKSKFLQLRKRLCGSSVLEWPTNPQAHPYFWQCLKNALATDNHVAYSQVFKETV
# In short: (§1)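 HEK-Blue cells overexpressing the receptor, with an NF-κB/AP-1-driven SEAP reporter, were pre-treated with compound (0.05 nM to 50 μM) for 30 min at room temperature. Stimulation used gardiquimod 7.5 μM (TLR7), R848 15.9 μM (TLR8) or ODN2006 5 nM (TLR9), followed by 22 h at 37 °C.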
# [2] = biological target: T2, human TLR8 (Homo sapiens, UniProt Q9NR97); experiment: TLR8 inhibition reporter assay (HEK-Blue SEAP); conditions: HEK-Blue cells overexpressing human TLR8, stimulated with R848 15.9 μM, 22 hour incubation
# T2 construct: host or cells: HEK-Blue cells
# T2 sequence (Q9NR97 27-1041): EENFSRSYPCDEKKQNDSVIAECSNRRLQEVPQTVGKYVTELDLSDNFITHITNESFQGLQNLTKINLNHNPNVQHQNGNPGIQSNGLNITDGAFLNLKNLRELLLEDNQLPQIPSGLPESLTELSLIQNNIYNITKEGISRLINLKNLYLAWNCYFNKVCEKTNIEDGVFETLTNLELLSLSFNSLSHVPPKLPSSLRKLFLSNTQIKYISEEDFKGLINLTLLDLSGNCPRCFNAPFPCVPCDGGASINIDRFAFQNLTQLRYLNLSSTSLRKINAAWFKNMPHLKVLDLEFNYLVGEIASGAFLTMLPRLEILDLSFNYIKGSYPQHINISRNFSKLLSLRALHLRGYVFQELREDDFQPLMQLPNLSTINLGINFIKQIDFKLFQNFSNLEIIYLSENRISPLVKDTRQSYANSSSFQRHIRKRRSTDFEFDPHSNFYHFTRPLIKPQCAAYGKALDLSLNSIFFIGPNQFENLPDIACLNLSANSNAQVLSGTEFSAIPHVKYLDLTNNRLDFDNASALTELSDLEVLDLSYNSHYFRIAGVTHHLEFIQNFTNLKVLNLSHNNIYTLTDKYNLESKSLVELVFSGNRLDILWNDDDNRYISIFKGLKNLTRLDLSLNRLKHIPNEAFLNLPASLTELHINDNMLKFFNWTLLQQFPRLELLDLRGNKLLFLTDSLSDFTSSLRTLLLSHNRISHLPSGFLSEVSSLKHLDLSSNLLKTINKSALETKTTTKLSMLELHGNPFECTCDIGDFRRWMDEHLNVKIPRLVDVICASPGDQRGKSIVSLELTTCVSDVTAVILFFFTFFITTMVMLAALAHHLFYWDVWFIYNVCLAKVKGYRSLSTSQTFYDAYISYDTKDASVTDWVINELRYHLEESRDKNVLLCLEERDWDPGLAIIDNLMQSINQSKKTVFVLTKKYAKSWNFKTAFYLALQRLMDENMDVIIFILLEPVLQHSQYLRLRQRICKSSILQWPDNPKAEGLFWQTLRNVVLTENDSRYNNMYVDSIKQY
# In short: as §1
# [3] = biological target: T3, human TLR9 (Homo sapiens, UniProt Q9NR96); experiment: TLR9 inhibition reporter assay (HEK-Blue SEAP); conditions: HEK-Blue cells overexpressing human TLR9, stimulated with ODN2006 5 nM, 22 hour incubation
# T3 construct: host or cells: HEK-Blue cells
# T3 sequence (Q9NR96 26-1032): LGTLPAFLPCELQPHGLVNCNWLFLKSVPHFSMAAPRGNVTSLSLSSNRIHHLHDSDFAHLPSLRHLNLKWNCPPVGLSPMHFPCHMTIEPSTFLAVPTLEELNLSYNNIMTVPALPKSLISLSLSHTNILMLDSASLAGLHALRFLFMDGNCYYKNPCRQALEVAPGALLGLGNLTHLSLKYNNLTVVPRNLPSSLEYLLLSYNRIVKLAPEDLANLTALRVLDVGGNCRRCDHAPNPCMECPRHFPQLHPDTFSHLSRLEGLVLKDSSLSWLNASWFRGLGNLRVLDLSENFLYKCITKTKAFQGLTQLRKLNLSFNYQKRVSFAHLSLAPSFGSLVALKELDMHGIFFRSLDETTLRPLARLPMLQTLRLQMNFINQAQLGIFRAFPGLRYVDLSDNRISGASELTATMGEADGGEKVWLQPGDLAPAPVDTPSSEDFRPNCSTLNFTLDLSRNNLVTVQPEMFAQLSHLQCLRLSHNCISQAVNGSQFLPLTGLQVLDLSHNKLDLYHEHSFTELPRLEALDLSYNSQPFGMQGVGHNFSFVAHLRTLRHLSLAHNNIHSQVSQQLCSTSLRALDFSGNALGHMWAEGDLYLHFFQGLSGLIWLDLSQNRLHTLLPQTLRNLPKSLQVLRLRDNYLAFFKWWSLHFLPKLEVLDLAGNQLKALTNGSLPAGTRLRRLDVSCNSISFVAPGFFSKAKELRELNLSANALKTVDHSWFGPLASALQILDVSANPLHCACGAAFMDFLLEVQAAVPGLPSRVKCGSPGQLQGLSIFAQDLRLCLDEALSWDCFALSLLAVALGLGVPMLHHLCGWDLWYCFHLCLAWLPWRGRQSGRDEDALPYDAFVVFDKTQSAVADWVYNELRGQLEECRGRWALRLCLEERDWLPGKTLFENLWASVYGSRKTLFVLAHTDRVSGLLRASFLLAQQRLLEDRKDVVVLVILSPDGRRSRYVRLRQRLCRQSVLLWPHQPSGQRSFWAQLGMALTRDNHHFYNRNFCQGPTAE
# In short: as §1
SMILES,IC50 [1],IC50 [2],IC50 [3]
"Cc1cc2c(C3CCCN(C4COC4)C3)n[nH]c2cc1-c1cc(C)c2ncnn2c1 (stereo not drawn) [Example 42, 8-methyl-6-(5-methyl-3-(1-(oxetan-3-yl)piperidin-3-yl)-1H-indazol-6-yl)-[1,2,4]triazolo[1,5-a]pyridine]",83.6 nM,0.9 nM,14500 nM
"CNC1CCC(c2n[nH]c3cc(-c4cc(C)c5ncnn5c4)c(C)cc23)CC1 (stereo not drawn) [Example 44, N-methyl-4-(5-methyl-6-(8-methyl-[1,2,4]triazolo[1,5-a]pyridin-6-yl)-1H-indazol-3-yl)cyclohexan-1-amine]",46.3 nM,1.9 nM,5490 nM
"COc1cc(-c2cc3[nH]nc(C4CCCNC4)c3cc2C)cn2ncnc12 (stereo not drawn) [Example 45, 8-methoxy-6-(5-methyl-3-(piperidin-3-yl)-1H-indazol-6-yl)-[1,2,4]triazolo[1,5-a]pyridine]",19.2 nM,0.7 nM,≥ 50000 nM
"Cc1cc2c(C3CCCNC3)n[nH]c2cc1-c1cc(C)c(=O)n(C)c1 (stereo not drawn) [Example 46, 1,3-dimethyl-5-(5-methyl-3-(piperidin-3-yl)-1H-indazol-6-yl)pyridin-2(1H)-one]",124 nM,2.1 nM,1040 nM
"Cc1cc2c(C3CCCNC3)n[nH]c2cc1-c1cn(C)c2ncccc12 (stereo not drawn) [Example 47, 5-methyl-6-(1-methyl-1H-pyrrolo[2,3-b]pyridin-3-yl)-3-(piperidin-3-yl)-1H-indazole]",22.9 nM,0.2 nM,2880 nM
"Cc1cc2c(C3CCCNC3)n[nH]c2cc1-c1cn2ncnc2c(C)c1C (stereo not drawn) [Example 48, 7,8-dimethyl-6-(5-methyl-3-(piperidin-3-yl)-1H-indazol-6-yl)-[1,2,4]triazolo[1,5-a]pyridine]",47.6 nM,2.5 nM,2310 nM
"Cc1cc2c(C3CNC3)n[nH]c2cc1-c1cc(C)c2ncnn2c1 [Example 49, 6-(3-(azetidin-3-yl)-5-methyl-1H-indazol-6-yl)-8-methyl-[1,2,4]triazolo[1,5-a]pyridine]",174 nM,15.3 nM,1890 nM
"Cc1cc(-c2cc3[nH]nc(C4CCCNC4)c3cc2C)cc(C)n1 (stereo not drawn) [Example 50, 6-(2,6-dimethylpyridin-4-yl)-5-methyl-3-(piperidin-3-yl)-1H-indazole]",63.4 nM,1.5 nM,404 nM
"Cc1cc(-c2cc(C)c3ncnn3c2)cc2[nH]nc(C3CCCNC3)c12 (stereo not drawn) [Example 51, 8-methyl-6-(4-methyl-3-(piperidin-3-yl)-1H-indazol-6-yl)-[1,2,4]triazolo[1,5-a]pyridine]",4.7 nM,19.6 nM,287 nM
"Cc1cc2c(C3CCCN(CC(=O)N(C)C)C3)n[nH]c2cc1-c1cc(C)c2ncnn2c1 (stereo not drawn) [Example 53, N,N-dimethyl-2-(3-(5-methyl-6-(8-methyl-[1,2,4]triazolo[1,5-a]pyridin-6-yl)-1H-indazol-3-yl)piperidin-1-yl)acetamide]",44.2 nM,1.2 nM,5830 nM
"Cc1cc2c(C3CCCN(C(=O)CN(C)C)C3)n[nH]c2cc1-c1cc(C)c2ncnn2c1 (stereo not drawn) [Example 54, 2-(dimethylamino)-1-(3-(5-methyl-6-(8-methyl-[1,2,4]triazolo[1,5-a]pyridin-6-yl)-1H-indazol-3-yl)piperidin-1-yl)ethan-1-one]",41 nM,6.4 nM,5270 nM
"Cc1cc2c(C3CCCN(C(=O)CN(C)C)C3)n[nH]c2cc1-c1cc(C)c2ncnn2c1 (stereo not drawn) [Example 56, 2-(dimethylamino)-1-(3-(5-methyl-6-(8-methyl-[1,2,4]triazolo[1,5-a]pyridin-6-yl)-1H-indazol-3-yl)piperidin-1-yl)ethan-1-one]",12.2 nM,1.7 nM,4940 nM
"Cc1cc2c(C3CCCN(CC(=O)N(C)C)C3)n[nH]c2cc1-c1cc(C)c2ncnn2c1 (stereo not drawn) [Example 57, N,N-dimethyl-2-(3-(5-methyl-6-(8-methyl-[1,2,4]triazolo[1,5-a]pyridin-6-yl)-1H-indazol-3-yl)piperidin-1-yl)acetamide]",19.9 nM,4.5 nM,6900 nM
"Cc1cc2c(C3CCCNC3)n[nH]c2cc1-c1ccc2ncnn2c1 (stereo not drawn) [Example 58, 6-(5-methyl-3-(piperidin-3-yl)-1H-indazol-6-yl)-[1,2,4]triazolo[1,5-a] pyridine]",76.2 nM,2.8 nM,661 nM
"Cc1cc(-c2cc(C)c3ncnn3c2)cc2[nH]nc(C3CCCN(CC(=O)N(C)C)C3)c12 (stereo not drawn) [Example 59, N,N-dimethyl-2-(3-(4-methyl-6-(8-methyl-[1,2,4]triazolo[1,5-a]pyridin-6-yl)-1H-indazol-3-yl)piperidin-1-yl)acetamide]",10.5 nM,43.9 nM,3210 nM
